Data as given in ChEMBL document CHEMBL3217712, “Improved biodistribution, pharmacokinetics and photodynamic efficacy using a new photostable sulfonamide bacteriochlorin” (Medchemcomm, 2012).

Experiments:
Design in all cases: dose 10 mg/kg, route intraperitoneal
[1] = Biodistribution in mouse Cloudman S91 tumor bearing DBA2 mouse spleen at 10 mg/kg, ip after 12 hrs; format: ADME, organism-based; details: read-out: Drug uptake
[2] = Biodistribution in mouse Cloudman S91 tumor bearing DBA2 mouse liver at 10 mg/kg, ip after 12 hrs; format: ADME, organism-based; details: read-out: Drug uptake
[3] = Biodistribution in mouse Cloudman S91 tumor bearing DBA2 mouse kidneys at 10 mg/kg, ip after 12 hrs; format: ADME, organism-based; details: kidney, read-out: Drug uptake
[4] = Biodistribution in mouse Cloudman S91 tumor bearing DBA2 mouse intestine at 10 mg/kg, ip after 12 hrs; format: ADME, organism-based; details: read-out: Drug uptake
[5] = Biodistribution in mouse Cloudman S91 tumor bearing DBA2 mouse heart at 10 mg/kg, ip after 12 hrs; format: ADME, organism-based; details: read-out: Drug uptake
[6] = Biodistribution in mouse Cloudman S91 tumor bearing DBA2 mouse lungs at 10 mg/kg, ip after 12 hrs; format: ADME, organism-based; details: lung, read-out: Drug uptake
[7] = Biodistribution in mouse Cloudman S91 tumor bearing DBA2 mouse blood at 10 mg/kg, ip after 24 hrs; format: ADME, organism-based; details: read-out: Drug uptake
[8] = Biodistribution in mouse Cloudman S91 tumor bearing DBA2 mouse tumour at 10 mg/kg, ip after 24 hrs; format: ADME, organism-based, Neoplasm; details: read-out: Drug uptake
[9] = Biodistribution in mouse Cloudman S91 tumor bearing DBA2 mouse skin at 10 mg/kg, ip after 24 hrs; format: ADME, organism-based, Zone of skin; details: read-out: Drug uptake
[10] = Biodistribution in mouse Cloudman S91 tumor bearing DBA2 mouse muscle at 10 mg/kg, ip after 24 hrs; format: ADME, organism-based, Muscle tissue; details: read-out: Drug uptake
[11] = Biodistribution in mouse Cloudman S91 tumor bearing DBA2 mouse muscle at 10 mg/kg, ip after 12 hrs; format: ADME, organism-based, Muscle tissue; details: read-out: Drug uptake
[12] = Biodistribution in mouse Cloudman S91 tumor bearing DBA2 mouse spleen at 10 mg/kg, ip after 24 hrs; format: ADME, organism-based; details: read-out: Drug uptake
[13] = Biodistribution in mouse Cloudman S91 tumor bearing DBA2 mouse liver at 10 mg/kg, ip after 24 hrs; format: ADME, organism-based; details: read-out: Drug uptake
[14] = Biodistribution in mouse Cloudman S91 tumor bearing DBA2 mouse kidneys at 10 mg/kg, ip after 24 hrs; format: ADME, organism-based; details: kidney, read-out: Drug uptake
[15] = Biodistribution in mouse Cloudman S91 tumor bearing DBA2 mouse intestine at 10 mg/kg, ip after 24 hrs; format: ADME, organism-based; details: read-out: Drug uptake
[16] = Biodistribution in mouse Cloudman S91 tumor bearing DBA2 mouse heart at 10 mg/kg, ip after 24 hrs; format: ADME, organism-based; details: read-out: Drug uptake
[17] = Biodistribution in mouse Cloudman S91 tumor bearing DBA2 mouse lungs at 10 mg/kg, ip after 24 hrs; format: ADME, organism-based; details: lung, read-out: Drug uptake
[18] = Biodistribution in mouse Cloudman S91 tumor bearing DBA2 mouse blood at 10 mg/kg, ip after 48 hrs; format: ADME, organism-based; details: read-out: Drug uptake
[19] = Biodistribution in mouse Cloudman S91 tumor bearing DBA2 mouse tumour at 10 mg/kg, ip after 48 hrs; format: ADME, organism-based, Neoplasm; details: read-out: Drug uptake
[20] = Biodistribution in mouse Cloudman S91 tumor bearing DBA2 mouse skin at 10 mg/kg, ip after 48 hrs; format: ADME, organism-based, Zone of skin; details: read-out: Drug uptake
[21] = Biodistribution in mouse Cloudman S91 tumor bearing DBA2 mouse muscle at 10 mg/kg, ip after 48 hrs; format: ADME, organism-based, Muscle tissue; details: read-out: Drug uptake
[22] = Biodistribution in mouse Cloudman S91 tumor bearing DBA2 mouse spleen at 10 mg/kg, ip after 48 hrs; format: ADME, organism-based; details: read-out: Drug uptake
[23] = Biodistribution in mouse Cloudman S91 tumor bearing DBA2 mouse liver at 10 mg/kg, ip after 48 hrs; format: ADME, organism-based; details: read-out: Drug uptake
[24] = Biodistribution in mouse Cloudman S91 tumor bearing DBA2 mouse kidneys at 10 mg/kg, ip after 48 hrs; format: ADME, organism-based; details: kidney, read-out: Drug uptake
[25] = Biodistribution in mouse Cloudman S91 tumor bearing DBA2 mouse intestine at 10 mg/kg, ip after 48 hrs; format: ADME, organism-based; details: read-out: Drug uptake
[26] = Biodistribution in mouse Cloudman S91 tumor bearing DBA2 mouse heart at 10 mg/kg, ip after 48 hrs; format: ADME, organism-based; details: read-out: Drug uptake
[27] = Biodistribution in mouse Cloudman S91 tumor bearing DBA2 mouse lungs at 10 mg/kg, ip after 48 hrs; format: ADME, organism-based; details: lung, read-out: Drug uptake
[28] = Biodistribution in mouse Cloudman S91 tumor bearing DBA2 mouse blood at 10 mg/kg, ip after 72 hrs; format: ADME, organism-based; details: read-out: Drug uptake
[29] = Biodistribution in mouse Cloudman S91 tumor bearing DBA2 mouse tumour at 10 mg/kg, ip after 72 hrs; format: ADME, organism-based, Neoplasm; details: read-out: Drug uptake
[30] = Biodistribution in mouse Cloudman S91 tumor bearing DBA2 mouse skin at 10 mg/kg, ip after 72 hrs; format: ADME, organism-based, Zone of skin; details: read-out: Drug uptake
[31] = Biodistribution in mouse Cloudman S91 tumor bearing DBA2 mouse muscle at 10 mg/kg, ip after 72 hrs; format: ADME, organism-based, Muscle tissue; details: read-out: Drug uptake
[32] = Biodistribution in mouse Cloudman S91 tumor bearing DBA2 mouse spleen at 10 mg/kg, ip after 72 hrs; format: ADME, organism-based; details: read-out: Drug uptake
[33] = Biodistribution in mouse Cloudman S91 tumor bearing DBA2 mouse liver at 10 mg/kg, ip after 72 hrs; format: ADME, organism-based; details: read-out: Drug uptake
[34] = Biodistribution in mouse Cloudman S91 tumor bearing DBA2 mouse kidneys at 10 mg/kg, ip after 72 hrs; format: ADME, organism-based; details: kidney, read-out: Drug uptake
[35] = Biodistribution in mouse Cloudman S91 tumor bearing DBA2 mouse intestine at 10 mg/kg, ip after 72 hrs; format: ADME, organism-based; details: read-out: Drug uptake
[36] = Biodistribution in mouse Cloudman S91 tumor bearing DBA2 mouse heart at 10 mg/kg, ip after 72 hrs; format: ADME, organism-based; details: read-out: Drug uptake
[37] = Biodistribution in mouse Cloudman S91 tumor bearing DBA2 mouse lungs at 10 mg/kg, ip after 72 hrs; format: ADME, organism-based; details: lung, read-out: Drug uptake

concentration at 12 h [1]: 6100 ng/g
concentration at 12 h [2]: 4000 ng/g
concentration at 12 h [3]: 300 ng/g
concentration at 12 h [4]: 1200 ng/g
concentration at 12 h [5]: 200 ng/g
concentration at 12 h [6]: 300 ng/g
concentration at 24 h [7]: 230 ng/g
concentration at 24 h [8]: 960 ng/g
concentration at 24 h [9]: 170 ng/g
concentration at 24 h [10]: 130 ng/g
concentration at 12 h [11]: 120 ng/g
concentration at 24 h [12]: 10000 ng/g
concentration at 24 h [13]: 2000 ng/g
concentration at 24 h [14]: 500 ng/g
concentration at 24 h [15]: 750 ng/g
concentration at 24 h [16]: 800 ng/g
concentration at 24 h [17]: 850 ng/g
concentration at 48 h [18]: 130 ng/g
concentration at 48 h [19]: 320 ng/g
concentration at 48 h [20]: 80 ng/g
concentration at 48 h [21]: 70 ng/g
concentration at 48 h [22]: 7300 ng/g
concentration at 48 h [23]: 2400 ng/g
concentration at 48 h [24]: 400 ng/g
concentration at 48 h [25]: 900 ng/g
concentration at 48 h [26]: 300 ng/g
concentration at 48 h [27]: 500 ng/g
concentration at 72 h [28]: 50 ng/g
concentration at 72 h [29]: 150 ng/g
concentration at 72 h [30]: 19 ng/g
concentration at 72 h [31]: 15 ng/g
concentration at 72 h [32]: 3000 ng/g
concentration at 72 h [33]: 630 ng/g
concentration at 72 h [34]: 200 ng/g
concentration at 72 h [35]: 300 ng/g
concentration at 72 h [36]: 200 ng/g
concentration at 72 h [37]: 300 ng/g
Compound: CCNS(=O)(=O)c1ccc(Cl)c(-c2c3nc(c(-c4c(Cl)ccc(S(=O)(=O)NCC)c4Cl)c4ccc([nH]4)c(-c4c(Cl)ccc(S(=O)(=O)NCC)c4Cl)c4nc(c(-c5c(Cl)ccc(S(=O)(=O)NCC)c5Cl)c5ccc2[nH]5)CC4)CC3)c1Cl
